Laboratory results as given in patent US20100298141A1, “SUBSTITUTED PYRIDINE N-OXIDE HERBICIDES” (E. I. DU PONT DE NEMOURS AND COMPANY, priority 2007, published 2010).

How the values were obtained:
crabgrass = experiment: Test A pre-/postemergence greenhouse test; format: in vivo, Digitaria sanguinalis; details: for Crabgrass, Large plant response rating: 0 to 100 scale; for Plant response rating, Crabgrass, Large: 0 to 100 scale where 0 is no effect and 100 is complete control
In short: (§1)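 Sowing in loam/sand; same-day pre (directed soil spray) and post (foliar, 1–2 leaf, 2–10 cm) treatment with surfactant-containing non-phytotoxic solvent formulation; ~10 days in greenhouse; eye-scored injury against untreated plants.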

giant foxtail [1] = experiment: Test A pre-/postemergence greenhouse test; format: in vivo, Setaria faberi; details: for Foxtail, Giant plant response rating: 0 to 100 scale; for Plant response rating, Foxtail, Giant: 0 to 100 scale where 0 is no effect and 100 is complete control
In short: as §1

morningglory [2] = experiment: Test A pre-/postemergence greenhouse test; format: in vivo, Ipomoea spp.; details: for Morningglory plant response rating: 0 to 100 scale; for Plant response rating, Morningglory: 0 to 100 scale where 0 is no effect and 100 is complete control
In short: as §1

wheat = experiment: Test A pre-/postemergence greenhouse test; format: in vivo, Triticum aestivum; details: for Wheat plant response rating: 0 to 100 scale; for Plant response rating, Wheat: 0 to 100 scale where 0 is no effect and 100 is complete control
In short: as §1

downy brome = experiment: Test C pre-/postemergence test; format: in vivo, Bromus tectorum
In short: (§2)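 Test chemicals were formulated with surfactant in a non-phytotoxic solvent and sprayed both on freshly planted seeds (preemergence) and on 1- to 4-leaf plants of 2–18 cm (postemergence). Flooded-paddy pots received compound directly into 3 cm of standing water, maintained for the test.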

cocklebur = experiment: Test C pre-/postemergence test; format: in vivo, Xanthium strumarium; details: for Plant response rating, Cocklebur: 31 g ai/ha, scale 0 to 100 (0 no effect, 100 complete control)
In short: as §2

corn = experiment: Test C pre-/postemergence test; format: in vivo, Zea mays; details: for Plant response rating, Corn: 31 g ai/ha, scale 0 to 100 (0 no effect, 100 complete control)
In short: as §2

woolly cupgrass = experiment: Test C pre-/postemergence test; format: in vivo, Eriochloa villosa; details: for Plant response rating, Cupgrass, Woolly: 31 g ai/ha, scale 0 to 100 (0 no effect, 100 complete control)
In short: as §2

giant foxtail [3] = experiment: Test C pre-/postemergence test; format: in vivo, Setaria faberii; details: for Plant response rating, Foxtail, Giant: 31 g ai/ha, scale 0 to 100 (0 no effect, 100 complete control)
In short: as §2

Goosegrass = experiment: Test C pre-/postemergence test; format: in vivo, Eleusin indica; details: for Plant response rating, Goosegrass: 31 g ai/ha, scale 0 to 100 (0 no effect, 100 complete control)
In short: as §2

johnsongrass = experiment: Test C pre-/postemergence test; format: in vivo, Sorghum halepense; details: for Plant response rating, Johnsongrass: 31 g ai/ha, scale 0 to 100 (0 no effect, 100 complete control)
In short: as §2

lambsquarters = experiment: Test C pre-/postemergence test; format: in vivo, Chenopodium album; details: for Plant response rating, Lambsquarters: 31 g ai/ha, scale 0 to 100 (0 no effect, 100 complete control)
In short: as §2

morningglory [4] = experiment: Test C pre-/postemergence test; format: in vivo, Ipomoea coccinea; details: for Plant response rating, Morningglory: 31 g ai/ha, scale 0 to 100 (0 no effect, 100 complete control)
In short: as §2

yellow nutsedge = experiment: Test C pre-/postemergence test; format: in vivo, Cyperus esculentus; details: for Plant response rating, Nutsedge, Yellow: 31 g ai/ha, scale 0 to 100 (0 no effect, 100 complete control)
In short: as §2

common ragweed = experiment: Test C pre-/postemergence test; format: in vivo, Ambrosia elation
In short: as §2

soybean = experiment: Test C pre-/postemergence test; format: in vivo, Glycine max; details: for Plant response rating, Soybean: 31 g ai/ha, scale 0 to 100 (0 no effect, 100 complete control)
In short: as §2

umbrella sedge = experiment: Test C flooded paddy test; format: in vivo, Cyperus difformis; details: Flood
In short: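 Flooded 3 cm over soil; compound into paddy water; depth kept constant. Greenhouse 13–15 d.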

[5] = Postemergence, 125 g ai/ha, 0 is no effect, 100 is complete control
[6] = Postemergence, 500 g ai/ha, 0 is no effect, 100 is complete control
[7] = Preemergence, 125 g ai/ha, 0 no effect, 100 complete control
[8] = Preemergence, 31 g ai/ha, scale 0 to 100 (0 no effect, 100 complete control)
[9] = preemergence, 250 g ai/ha, scale 0 (no effect) to 100 (complete control)
[10] = 62 g ai/ha, Preemergence, scale 0 to 100
[11] = 125 g ai/ha, preemergence, scale 0 (no effect) to 100 (complete control)
[12] = 31 g ai/ha, scale 0 to 100 (0 no effect, 100 complete control)
[13] = 62 g ai/ha, scale 0 to 100, 0 no effect, 100 complete control, 13 to 15 days
[14] = 125 g ai/ha, scale 0 to 100, 0 no effect, 100 complete control, 13 to 15 days
[15] = 250 g ai/ha, scale 0 to 100, 0 no effect, 100 complete control, 13 to 15 days

Structure (SMILES): Cc1cc[n+]([O-])c(S(=O)(=O)C(Cl)c2c(C(F)(F)F)nn(C)c2OCC(F)(F)F)c1 (racemic) [Compound 37]
- Crabgrass, Large plant response rating (crabgrass; [5]): 30
- Crabgrass, Large plant response rating (crabgrass; [6]): 80
- Crabgrass, Large plant response rating (crabgrass; [7]): 60
- Plant response rating, Crabgrass, Large (crabgrass; Preemergence, 500 g ai/ha): 90
- Foxtail, Giant plant response rating (giant foxtail [1]; [5]): 30
- Foxtail, Giant plant response rating (giant foxtail [1]; [6]): 80
- Foxtail, Giant plant response rating (giant foxtail [1]; [7]): 90
- Plant response rating, Foxtail, Giant (giant foxtail [1]; Preemergence, 500 g ai/ha): 100
- Morningglory plant response rating (morningglory [2]; [5]): 0
- Morningglory plant response rating (morningglory [2]; [6]): 20
- Morningglory plant response rating (morningglory [2]; [7]): 0
- Plant response rating, Morningglory (morningglory [2]; Preemergence, 500 g ai/ha): 80
- Wheat plant response rating (wheat; [5]): 0
- Wheat plant response rating (wheat; [6]): 50
- Wheat plant response rating (wheat; [7]): 20
- Plant response rating, Wheat (wheat; Preemergence, 500 g ai/ha): 50
- Plant response rating, Bromegrass, Downy (downy brome; [8]): 0
- Bromegrass, Downy plant response rating (downy brome; [9]): 60
- Cocklebur plant response rating (cocklebur; [10]): 0
- Cocklebur plant response rating (cocklebur; [11]): 0
- Plant response rating, Cocklebur (cocklebur; Preemergence): 0
- Cocklebur plant response rating (cocklebur; [9]): 0
- Corn plant response rating (corn; [10]): 5
- Corn plant response rating (corn; [11]): 50
- Plant response rating, Corn (corn; Preemergence): 0
- Corn plant response rating (corn; [9]): 90
- Cupgrass, Woolly plant response rating (woolly cupgrass; [10]): 80
- Cupgrass, Woolly plant response rating (woolly cupgrass; [11]): 98
- Plant response rating, Cupgrass, Woolly (woolly cupgrass; Preemergence): 40
- Cupgrass, Woolly plant response rating (woolly cupgrass; [9]): 100
- Foxtail, Giant plant response rating (giant foxtail [3]; [10]): 70
- Foxtail, Giant plant response rating (giant foxtail [3]; [11]): 85
- Plant response rating, Foxtail, Giant (giant foxtail [3]; Preemergence): 20
- Foxtail, Giant plant response rating (giant foxtail [3]; [9]): 100
- Goosegrass plant response rating (Goosegrass; [10]): 100
- Goosegrass plant response rating (Goosegrass; [11]): 100
- Plant response rating, Goosegrass (Goosegrass; Preemergence): 85
- Goosegrass plant response rating (Goosegrass; [9]): 100
- Johnsongrass plant response rating (johnsongrass; [10]): 80
- Johnsongrass plant response rating (johnsongrass; [11]): 80
- Plant response rating, Johnsongrass (johnsongrass; Preemergence): 50
- Johnsongrass plant response rating (johnsongrass; [9]): 95
- Lambsquarters plant response rating (lambsquarters; [10]): 80
- Lambsquarters plant response rating (lambsquarters; [11]): 100
- Plant response rating, Lambsquarters (lambsquarters; Preemergence): 0
- Lambsquarters plant response rating (lambsquarters; [9]): 100
- Morningglory plant response rating (morningglory [4]; [10]): 0
- Morningglory plant response rating (morningglory [4]; [11]): 0
- Plant response rating, Morningglory (morningglory [4]; Preemergence): 0
- Morningglory plant response rating (morningglory [4]; [9]): 60
- Nutsedge, Yellow plant response rating (yellow nutsedge; [10]): 0
- Nutsedge, Yellow plant response rating (yellow nutsedge; [11]): 80
- Plant response rating, Nutsedge, Yellow (yellow nutsedge; Preemergence): 0
- Nutsedge, Yellow plant response rating (yellow nutsedge; [9]): 80
- Ragweed plant response rating (common ragweed; [10]): 0
- Ragweed plant response rating (common ragweed; [11]): 70
- Plant response rating, Ragweed (common ragweed; [8]): 0
- Ragweed plant response rating (common ragweed; [9]): 80
- Soybean plant response rating (soybean; [11]): 10
- Plant response rating, Soybean (soybean; Preemergence): 0
- Soybean plant response rating (soybean; [9]): 10
- Plant response rating, Sedge, Umbrella (umbrella sedge; [12]): 60
- Plant response rating, Sedge, Umbrella (umbrella sedge; [13]): 85
- Plant response rating, Sedge, Umbrella (umbrella sedge; [14]): 95
- Plant response rating, Sedge, Umbrella (umbrella sedge; [15]): 95

Structure (SMILES): Cn1nc(C(F)(F)F)c(C[S+]([O-])c2cc(Cl)cc[n+]2[O-])c1Cl (racemic) [Compound 39]
- Crabgrass, Large plant response rating (crabgrass; [5]): 80
- Crabgrass, Large plant response rating (crabgrass; [6]): 80
- Crabgrass, Large plant response rating (crabgrass; [7]): 90
- Plant response rating, Crabgrass, Large (crabgrass; Preemergence, 500 g ai/ha): 90
- Foxtail, Giant plant response rating (giant foxtail [1]; [5]): 80
- Foxtail, Giant plant response rating (giant foxtail [1]; [6]): 90
- Foxtail, Giant plant response rating (giant foxtail [1]; [7]): 100
- Plant response rating, Foxtail, Giant (giant foxtail [1]; Preemergence, 500 g ai/ha): 100
- Morningglory plant response rating (morningglory [2]; [5]): 60
- Morningglory plant response rating (morningglory [2]; [6]): 100
- Morningglory plant response rating (morningglory [2]; [7]): 80
- Plant response rating, Morningglory (morningglory [2]; Preemergence, 500 g ai/ha): 100
- Wheat plant response rating (wheat; [5]): 60
- Wheat plant response rating (wheat; [6]): 60
- Wheat plant response rating (wheat; [7]): 50
- Plant response rating, Wheat (wheat; Preemergence, 500 g ai/ha): 70
- Cocklebur plant response rating (cocklebur; [10]): 0
- Cocklebur plant response rating (cocklebur; [11]): 0
- Plant response rating, Cocklebur (cocklebur; Preemergence): 0
- Cocklebur plant response rating (cocklebur; [9]): 0
- Corn plant response rating (corn; [10]): 5
- Corn plant response rating (corn; [11]): 70
- Plant response rating, Corn (corn; Preemergence): 0
- Corn plant response rating (corn; [9]): 80
- Cupgrass, Woolly plant response rating (woolly cupgrass; [10]): 85
- Cupgrass, Woolly plant response rating (woolly cupgrass; [11]): 85
- Plant response rating, Cupgrass, Woolly (woolly cupgrass; Preemergence): 40
- Cupgrass, Woolly plant response rating (woolly cupgrass; [9]): 85
- Foxtail, Giant plant response rating (giant foxtail [3]; [10]): 90
- Plant response rating, Foxtail, Giant (giant foxtail [3]; Preemergence): 20
- Foxtail, Giant plant response rating (giant foxtail [3]; [9]): 90
- Goosegrass plant response rating (Goosegrass; [10]): 100
- Goosegrass plant response rating (Goosegrass; [11]): 100
- Plant response rating, Goosegrass (Goosegrass; Preemergence): 98
- Goosegrass plant response rating (Goosegrass; [9]): 100
- Johnsongrass plant response rating (johnsongrass; [10]): 80
- Johnsongrass plant response rating (johnsongrass; [11]): 85
- Plant response rating, Johnsongrass (johnsongrass; Preemergence): 30
- Johnsongrass plant response rating (johnsongrass; [9]): 85
- Lambsquarters plant response rating (lambsquarters; [10]): 80
- Lambsquarters plant response rating (lambsquarters; [11]): 100
- Plant response rating, Lambsquarters (lambsquarters; Preemergence): 75
- Lambsquarters plant response rating (lambsquarters; [9]): 100
- Morningglory plant response rating (morningglory [4]; [10]): 80
- Morningglory plant response rating (morningglory [4]; [11]): 100
- Plant response rating, Morningglory (morningglory [4]; Preemergence): 30
- Morningglory plant response rating (morningglory [4]; [9]): 100
- Nutsedge, Yellow plant response rating (yellow nutsedge; [10]): 50
- Nutsedge, Yellow plant response rating (yellow nutsedge; [11]): 85
- Plant response rating, Nutsedge, Yellow (yellow nutsedge; Preemergence): 50
- Nutsedge, Yellow plant response rating (yellow nutsedge; [9]): 85
- Ragweed plant response rating (common ragweed; [10]): 0
- Ragweed plant response rating (common ragweed; [11]): 90
- Ragweed plant response rating (common ragweed; [9]): 90
- Soybean plant response rating (soybean; [10]): 0
- Soybean plant response rating (soybean; [11]): 10
- Plant response rating, Soybean (soybean; Preemergence): 0
- Soybean plant response rating (soybean; [9]): 10
- Plant response rating, Sedge, Umbrella (umbrella sedge; [12]): 70
- Plant response rating, Sedge, Umbrella (umbrella sedge; [13]): 85
- Plant response rating, Sedge, Umbrella (umbrella sedge; [14]): 95
- Plant response rating, Sedge, Umbrella (umbrella sedge; [15]): 95
